{"source": "patent US7303740B2", "about": "“Methods for the diagnosis and treatment of breast cancer” (Albert Einstein College of Medicine of Yeshiva University, priority 2000, dated 2007)", "key": {"mgNIS [1]": {"target": "T1, mgNIS (Homo sapiens, UniProt Q92911)", "T1 construct": "from tissue; host or cells: person with locally-advanced invasive ductal carcinoma of the breast (whole-body scan)", "T1 sequence (Q92911 1-643)": "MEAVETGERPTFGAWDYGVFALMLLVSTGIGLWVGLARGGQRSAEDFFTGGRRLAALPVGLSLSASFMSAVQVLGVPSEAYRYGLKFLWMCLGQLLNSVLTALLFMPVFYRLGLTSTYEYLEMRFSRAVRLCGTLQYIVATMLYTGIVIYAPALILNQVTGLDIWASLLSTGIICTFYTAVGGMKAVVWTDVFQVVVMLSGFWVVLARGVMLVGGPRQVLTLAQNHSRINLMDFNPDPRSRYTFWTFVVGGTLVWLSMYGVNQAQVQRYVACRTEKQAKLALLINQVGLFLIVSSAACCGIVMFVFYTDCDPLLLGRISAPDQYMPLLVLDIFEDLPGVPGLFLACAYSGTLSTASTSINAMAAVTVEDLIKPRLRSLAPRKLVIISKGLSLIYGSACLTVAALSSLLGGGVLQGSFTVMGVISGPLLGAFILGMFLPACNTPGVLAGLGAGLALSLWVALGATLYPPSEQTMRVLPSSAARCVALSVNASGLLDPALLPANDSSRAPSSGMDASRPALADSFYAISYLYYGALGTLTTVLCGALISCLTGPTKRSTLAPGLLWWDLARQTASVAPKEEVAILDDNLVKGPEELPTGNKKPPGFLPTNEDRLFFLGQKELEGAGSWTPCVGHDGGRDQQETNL", "assay": "99mTc-pertechnetate scintigraphy of a person with locally-advanced breast cancer", "assay_type": "in vivo", "details": "whole-body scan, invasive ductal carcinoma", "description": "FIG. 7. ^99mTc-pertechnetate scintigraphy of a person with a locally-advanced cancer of the right breast and an enlarged thyroid. The patient was scanned after injection of 15 mCi of ^99mTc-labeled pertechnetate (^99mTcO4^−). Tracer accumulates in the thyroid and stomach. Tracer is present in the heart and liver due to vascular pooling. The arrow indicates distinct accumulation in the area of the breast cancer.\nThe results obtained from the studies on transgenic mice, and the similarity between the human breast cancer immunohistochemical patterns and those observed in thyroid cancer, indicate the likelihood that mgNIS expressed in human breast tumors is active. Clearly, the most direct way to determine the activity of mgNIS in breast cancer is to subject patients to scintigraphic evaluation with ^99mTcO4^−. One patient who was undergoing neoadjuvant hormonal therapy for locally-advanced breast cancer presented initially with an enlarged thyroid. Accordingly, they underwent whole-body ^99mTcO4^− scanning."}, "NIS": {"target": "T2, NIS (Rattus norvegicus, UniProt Q63008)", "T2 construct": "from tissue; host or cells: living female rats (nubile and lactating): thyroid, stomach, lactating mammary gland", "T2 sequence (Q63008 1-618)": "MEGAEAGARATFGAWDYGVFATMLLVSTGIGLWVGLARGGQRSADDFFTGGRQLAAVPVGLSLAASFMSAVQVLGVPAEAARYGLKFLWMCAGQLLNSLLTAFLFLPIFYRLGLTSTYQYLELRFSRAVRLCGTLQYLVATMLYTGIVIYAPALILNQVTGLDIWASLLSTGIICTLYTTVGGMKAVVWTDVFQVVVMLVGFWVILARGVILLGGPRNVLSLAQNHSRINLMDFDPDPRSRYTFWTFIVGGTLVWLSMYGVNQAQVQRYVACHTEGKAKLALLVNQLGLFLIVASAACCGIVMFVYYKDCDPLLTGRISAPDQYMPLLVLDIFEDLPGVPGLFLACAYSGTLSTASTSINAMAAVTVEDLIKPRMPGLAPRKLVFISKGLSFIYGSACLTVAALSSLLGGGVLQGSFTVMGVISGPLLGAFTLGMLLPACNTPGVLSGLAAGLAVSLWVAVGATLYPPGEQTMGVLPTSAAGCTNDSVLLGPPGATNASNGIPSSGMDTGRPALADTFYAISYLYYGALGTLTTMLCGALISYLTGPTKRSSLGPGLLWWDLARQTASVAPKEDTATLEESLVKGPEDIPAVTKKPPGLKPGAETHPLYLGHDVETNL", "assay_type": "in vivo", "procedure": "FIG. 1. Characterization of I^− accumulation and NIS expression in rat lactating MG and stomach. (A)-(C) In vivo scintigraphic imaging of ^99mTcO4^− injected adult female rats. (A) Radiotracer (1.5 mCi) was injected into the tail vein of nubile animals, and pin-hole images of the body were obtained at 30 min post-injection. (B) Lactating rats were imaged 5 min after ^99mTcO4^− injection. (C) To ascertain inhibition of ^99mTcO4^− uptake, ^99mTcO4^− and 20 mg perchlorate were co-injected into the tail vein, followed by static imaging at 5 min. (D) Immunoblot analysis. Membrane fractions isolated from rat tissues were electrophoresed, electrotransferred onto nitrocellulose, and immunoblotted with affinity-purified anti-NIS antibody (Ab) and horseradish peroxidase (HRP) linked anti-rabbit IgG (Amersham-Pharmacia, Piscataway, N.J.). Approximately 40 μg of membrane fractions were incubated (either with or without N-glycosidase F) overnight at 37° C., followed by SDS polyacrylamide gel electrophoresis and Western blot analysis. Lanes 1 and 2: thyroid; lanes 4 and 5: lactating MG; lanes 7 and 8: stomach; lane 10: non-lactating MG; lane 11: muscle; and lane 12: lung. […]"}, "mgNIS [2]": {"target": "T3, mgNIS (Mus musculus, UniProt Q99PN0)", "T3 sequence (Q99PN0 1-618)": "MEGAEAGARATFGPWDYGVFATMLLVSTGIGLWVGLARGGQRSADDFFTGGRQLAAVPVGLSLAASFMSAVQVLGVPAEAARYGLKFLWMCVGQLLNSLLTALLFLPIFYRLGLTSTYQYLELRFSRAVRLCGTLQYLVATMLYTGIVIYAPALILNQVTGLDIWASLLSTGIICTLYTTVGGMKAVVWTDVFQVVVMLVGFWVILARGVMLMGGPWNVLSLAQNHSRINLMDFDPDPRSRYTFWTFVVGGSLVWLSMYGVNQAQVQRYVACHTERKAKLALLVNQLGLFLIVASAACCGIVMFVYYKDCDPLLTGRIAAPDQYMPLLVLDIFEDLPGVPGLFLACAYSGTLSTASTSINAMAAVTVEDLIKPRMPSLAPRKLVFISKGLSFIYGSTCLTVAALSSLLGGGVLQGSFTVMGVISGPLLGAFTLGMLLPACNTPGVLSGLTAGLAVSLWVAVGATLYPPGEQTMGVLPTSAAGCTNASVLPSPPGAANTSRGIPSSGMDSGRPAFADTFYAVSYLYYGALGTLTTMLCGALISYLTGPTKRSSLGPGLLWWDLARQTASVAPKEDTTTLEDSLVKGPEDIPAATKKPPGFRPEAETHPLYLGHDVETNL", "assay_type": "in vivo, mice", "set-up": "Membrane fractions isolated from MG of nubile female mice; from tissue; host or cells: CD1 (ICR) mice (intact, ovariectomized, gestating) and MMTV-ras / MMTV-neu transgenic mice: mammary gland, mammary adenocarcinoma, stomach", "quoted_text": "Analysis of mammary adenocarcinomas in MMTV-ras and MMTV-neu transgenic mice. (A) Photograph of MMTV-ras transgenic mouse with a mammary adenocarcinoma. Transgenic mice were anaesthetized with intramuscular sodium pentobarbital injections. […] (E) Dynamic curves of percent injected dose per pixel were calculated by drawing regions of interest around tumoral tissue and the mediastinum, and dividing the counts per pixel (average counts) within each region of interest by the initial whole-body count value, thereby yielding a percent injected dose per pixel. (F) Immunoblot analysis of membrane fractions isolated from MMTV-ras tumor with anti-NIS Ab. (I) Immunoblot analysis of membrane fractions isolated from MMTV-neu tumors with anti-NIS Ab. In an MMTV-neu mouse with two adjacent mammary glands containing tumors, each tumor is indicated with an arrow and numbered. Lanes “tu1”, “tu2”, and “mg” correspond to proteins extracted from tumor 1, tumor 2, and contralateral normal mammary gland, respectively.\nTo assess whether specific active I^− uptake (a result of mgNIS expression) occurred in the mammary tumoral cells, transgenic animals were imaged in vivo with either ^131I^− or ^99mTcO4^−. […] Quantification of the accumulation of the various tracers in the tumor, as a function of time, is also shown for the ras mouse."}, "mgNIS [3]": {"target": "T3, mgNIS", "details": "mice, 18th day of gestation, subcutaneous injection", "quoted_text": "Animals at indicated days of gestation (3rd, 11th, or 18th) received a single dose of 1 μCi ^125I^− by subcutaneous injection in 100 μl of PBS. One hour later, MG were surgically removed, and radioactivity was quantified in a γ-counter (LKB 1282 Compugamma, Md.). Obtained values were standardized according to the weight of MG removed from each mouse, and were expressed as the ratio of radioiodide in MG tissue versus blood."}, "mgNIS [4]": {"target": "T3, mgNIS", "assay": "Ex vivo scintigraphic imaging of 99mTcO4- accumulation in organs of oxytocin-treated nubile mice", "set-up": "Membrane fractions isolated from MG of nubile female mice; from tissue; host or cells: CD1 (ICR) mice (intact, ovariectomized, gestating) and MMTV-ras / MMTV-neu transgenic mice: mammary gland, mammary adenocarcinoma, stomach", "details": "2 mg perchlorate with tracer", "procedure": "FIG. 3. In vivo effect of oxytocin on functional expression of mgNIS in nubile mice. (A) Radioiodide transport in MG of oxytocin-treated nubile mice. Seven- to eight-week-old female mice were treated subcutaneously with phosphate buffered saline solution (PBS), 10 I.U. of prolactin (PRL), 1 I.U. of oxytocin (OXY), or prolactin and oxytocin (PRL+OXY) for three days. Then, 1 μCi of ^125I^− was injected intraperitoneally. […] (B) Immunoblot analysis of MG from hormonally-treated mice. […] Isolated membrane fractions were electrophoresed, electrotransferred onto nitrocellulose, and analyzed by immunoblots using anti-NIS Ab. […] Perchlorate-inhibited accumulation of ^99mTcO4^− was detected in stomach and MG of OXY-treated animals. (D) Quantification of ^99mTcO4^− accumulation in various organs from OXY- or PBS-treated mice. Tracer accumulation was monitored using image analysis software (ImageQuant, Macintosh). […] Counts were divided by the weight of the organs (cpm/mg tissue), and standardized by dividing them by cpm detected in the blood (cpm/mg blood) of each animal. ^99mTcO4^− accumulation in the organs from: PBS-treated animals (open bars); OXY-treated animals (dotted bars); and OXY-treated animals after ^99mTcO4^−+perchlorate injection (dark bars). […]"}, "[5]": {"details": "lactating rats, single intraperitoneal injection"}}}
{"compound": "[O]=[99Tc](=[O])(=[O])[O-]", "note": "[^99mTcO4^−, ^99mTc-pertechnetate]", "values": [{"measurement": "tracer distribution in patient with breast tumor", "setting": "mgNIS [1]", "result": "concentrated in the area of this patient's breast tumor"}, {"measurement": "time to concentration of 99mTcO4- in all pairs of MGs", "setting": "NIS; lactating rats, tail vein injection", "result": "≤ 5", "unit": "min"}, {"measurement": "tracer accumulation in mammary tumor", "setting": "mgNIS [2]; MMTV-ras and MMTV-neu mice, tail vein injection", "result": "accumulated in the stomach and tumor"}]}
{"compound": "[125IH]", "note": "[^125I^−, radioiodide]", "values": [{"measurement": "125I- concentration in lactating MG", "setting": "lactating rat", "result": "concentrated in lactating MG"}, {"measurement": "125I- concentration in milk with respect to blood", "setting": "[5]", "result": "> 60", "unit": "fold"}, {"measurement": "time of saturation of 125I- accumulation in milk", "setting": "[5]", "result": "~2", "unit": "h"}, {"measurement": "125I- concentration in skeletal muscle or non-lactating MG", "setting": "rat, in vivo", "result": "not concentrated"}, {"measurement": "accumulation of radioiodide in MG compared with blood concentration", "setting": "mgNIS [3]", "result": 15, "unit": "fold"}]}
{"compound": "[O-][Cl+3]([O-])([O-])O", "note": "[perchlorate]", "values": [{"measurement": "effect on 99mTcO4- concentration in thyroid, stomach, and lactating MG", "setting": "NIS; lactating rat, 20 mg perchlorate co-injected, imaging at 5 min", "result": "effectively prevented"}, {"measurement": "effect on 99mTcO4- accumulation in organs", "setting": "mgNIS [4]", "result": "inhibited"}, {"measurement": "effect on 99mTcO4- accumulation in tumor and stomach", "setting": "mgNIS [2]; co-injected with the isotope", "result": "prevented"}]}
